From patent US10793547B2, “Modulator of the cystic fibrosis transmembrane conductance regulator, pharmaceutical compositions, methods of treatment, and process for making the modulator” (Vertex Pharmaceuticals Incorporated, priority 2016, dated 2020) come the findings set out here.

In data set [1] the target is T1, human PXR (Homo sapiens, UniProt O75469).
T1 construct: host or cells: DPX-2 cell line (derived from HepG2)
T1 sequence (O75469 1-434): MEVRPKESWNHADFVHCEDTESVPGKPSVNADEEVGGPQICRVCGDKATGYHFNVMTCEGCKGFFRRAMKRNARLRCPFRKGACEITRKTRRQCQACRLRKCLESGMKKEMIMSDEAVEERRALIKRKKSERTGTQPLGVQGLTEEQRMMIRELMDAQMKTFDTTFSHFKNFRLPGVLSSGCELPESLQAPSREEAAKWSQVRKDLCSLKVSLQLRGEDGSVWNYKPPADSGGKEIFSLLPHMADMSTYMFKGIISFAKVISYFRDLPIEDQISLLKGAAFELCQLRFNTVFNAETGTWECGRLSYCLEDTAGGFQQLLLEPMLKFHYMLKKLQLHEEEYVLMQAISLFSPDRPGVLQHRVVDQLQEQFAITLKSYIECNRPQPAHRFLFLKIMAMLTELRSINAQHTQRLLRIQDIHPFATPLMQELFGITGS
The data set can be described thus: PXR assay: PXR mediated CYP3A4 induction in DPX-2 cell line. It counts as cell-based. Particulars: DPX-2 cells. The method, then:
D. Experimental Protocol for PXR Assay
The propensity for PXR mediated CYP3A4 induction is assessed using the DPX-2 cell line in vitro. This cell line, which has been licensed from Puracyp Inc. was derived from HepG2 cells and has been stably transfected with genes encoding human PXR as well as a modified luciferase reporter linked to the CYP3A4 promoter region and related distal and proximal enhancers.
The assay is run in 384 well format and each test article is administered in 11 doses ranging from 0.1 to 60 μM. On day 1, DPX-2 cells which have previously been expanded in-house and cryopreserved are thawed and seeded in tissue culture plates. The following day, media is changed and cells are cultured in media containing test article, vehicle control or the positive control compound, the clinically validated CYP3A4 inducer rifampicin. Cells are cultured in the presence of test article for 48 hours and then cell viability is assessed using fluorescence based assay (Cell Titer-Fluor, Promega) with an EnVision Plate Reader (PerkinElmer). Subsequently, CYP3A4 transactivation, which is proportional to luciferase activity, is measured by reading luminescense using the Promega One-Glo reagent system using the same plate reader.
Data processing within the Genedata software package allows reporting of max fold induction compared to vehicle control, an EC50 value for CYP3A4 inducers and an 11 point-dose response curve.

Data set [2] has as its target T2, F508del-CFTR (Homo sapiens, UniProt P13569, DEL508-508).
T2 construct: expressed in transfected cells
The data set can be described thus: Membrane potential optical (FLIPR) assay for F508del-CFTR modulators in NIH 3T3 cells. It counts as cell-based. Particulars: NIH 3T3 cells expressing F508del; assay A1; read-out: CFTRdF508 Cor 3T3 FLIPR 384 CFTRdF508 MP 3T3 770 EC50. The source says:
Membrane Potential Optical Methods for Assaying Properties of F508del-CFTR Modulators
The assay utilizes fluorescent voltage sensing dyes to measure changes in membrane potential using a fluorescent plate reader (e.g., FLIPR III, Molecular Devices, Inc.) as a readout for increase in functional F508del in NIH 3T3 cells. The driving force for the response is the creation of a chloride ion gradient in conjunction with channel activation and concurrent with compound treatment by a single liquid addition step after the cells have previously been loaded with a voltage sensing dye.
A1. Identification of F508del-CFTR Modulators
To identify modulators of F508del, a fluorescence based HTS assay format was developed. This HTS assay utilizes fluorescent voltage sensing dyes to measure changes in membrane potential on the FLIPR III as a measurement for increase in gating (conductance) of F508del NIH 3T3 cells. The driving force for the response is the creation of a chloride ion gradient in conjunction with channel activation and concurrent with compound treatment by a single liquid addition step after the cells have previously been loaded with a voltage sensing dye.
Bath Solution #1: (in mM) NaCl 160, KCl 4.5, CaCl2 2, MgCl2 1, HEPES 10, pH 7.4 with NaOH, Glucose 10.
Chloride-free bath solution: Chloride salts in Bath Solution #1 (above) are substituted with gluconate salts.
NIH3T3 mouse fibroblasts stably expressing F508del were used for optical measurements of membrane potential. The cells were maintained at 37° C. in 5% CO2 and 90% humidity in Dulbecco's modified Eagle's medium supplemented with 2 mM glutamine, 10% fetal bovine serum, 1×NEAA, β-ME, 1× pen/strep, and 25 mM HEPES in 175 cm^2 culture flasks. For all optical assays, the cells were seeded at 12,000 cells/well in 384-well matrigel-coated plates and cultured for 18-24 hrs at 37° C. for the potentiator assay. For the correction assay, the cells were cultured at 37° C. with and without compounds for 18-24 hours.

T2 sequence (P13569 with tags, fused parts or gaps DEL508-508): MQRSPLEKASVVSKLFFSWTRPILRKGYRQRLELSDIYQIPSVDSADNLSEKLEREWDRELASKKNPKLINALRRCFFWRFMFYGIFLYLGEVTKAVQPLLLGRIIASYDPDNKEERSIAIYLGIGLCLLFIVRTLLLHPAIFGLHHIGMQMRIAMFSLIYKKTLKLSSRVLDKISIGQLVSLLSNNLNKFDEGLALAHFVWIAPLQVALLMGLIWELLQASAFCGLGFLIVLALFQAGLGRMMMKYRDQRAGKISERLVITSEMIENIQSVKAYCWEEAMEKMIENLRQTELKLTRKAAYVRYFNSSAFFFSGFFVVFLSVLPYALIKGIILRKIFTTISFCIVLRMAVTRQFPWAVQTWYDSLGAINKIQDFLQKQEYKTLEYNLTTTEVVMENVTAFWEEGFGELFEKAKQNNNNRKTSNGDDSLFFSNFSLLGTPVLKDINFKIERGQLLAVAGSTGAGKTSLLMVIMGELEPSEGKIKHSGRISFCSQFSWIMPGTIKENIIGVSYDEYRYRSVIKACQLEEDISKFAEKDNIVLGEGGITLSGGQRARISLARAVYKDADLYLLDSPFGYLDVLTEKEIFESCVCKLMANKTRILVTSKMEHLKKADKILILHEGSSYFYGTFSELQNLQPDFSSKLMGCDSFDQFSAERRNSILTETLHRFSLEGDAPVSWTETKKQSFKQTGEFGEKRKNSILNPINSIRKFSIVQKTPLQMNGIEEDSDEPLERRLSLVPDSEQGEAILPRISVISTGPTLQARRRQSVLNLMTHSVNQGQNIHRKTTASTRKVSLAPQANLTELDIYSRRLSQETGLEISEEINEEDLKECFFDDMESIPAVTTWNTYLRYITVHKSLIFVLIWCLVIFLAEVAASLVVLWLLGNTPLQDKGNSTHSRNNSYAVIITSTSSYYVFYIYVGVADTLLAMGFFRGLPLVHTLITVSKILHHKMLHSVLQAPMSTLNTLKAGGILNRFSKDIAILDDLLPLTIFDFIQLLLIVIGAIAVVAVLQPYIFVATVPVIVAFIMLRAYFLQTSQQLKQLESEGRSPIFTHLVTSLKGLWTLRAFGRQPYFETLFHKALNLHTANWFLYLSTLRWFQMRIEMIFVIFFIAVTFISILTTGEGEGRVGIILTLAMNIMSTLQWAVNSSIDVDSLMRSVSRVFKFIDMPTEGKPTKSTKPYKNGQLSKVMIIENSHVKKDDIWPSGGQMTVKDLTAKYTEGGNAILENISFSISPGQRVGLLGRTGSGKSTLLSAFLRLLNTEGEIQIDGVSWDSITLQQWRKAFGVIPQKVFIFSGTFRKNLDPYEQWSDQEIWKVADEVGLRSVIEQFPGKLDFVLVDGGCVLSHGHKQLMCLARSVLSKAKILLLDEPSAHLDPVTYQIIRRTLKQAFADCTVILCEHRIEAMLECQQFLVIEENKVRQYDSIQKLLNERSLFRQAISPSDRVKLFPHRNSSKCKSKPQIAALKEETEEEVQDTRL

As usually defined, the EC50 is the concentration that produces a half-maximal response. As to `Cc1nn(C)cc1S(=O)(=O)NC(=O)c1ccc(-n2ccc(OCC3(C(F)(F)F)CC3)n2)nc1N1CC(C(C)(C)C)CC1(C)C` (racemic) [Compound 40, 2-(4-tert-Butyl-2,2-dimethyl-pyrrolidin-1-yl)-N-(1,3-dimethylpyrazol-4-yl)sulfonyl-6-[3-[[1-(trifluoromethyl)cyclopropyl]methoxy]pyrazol-1-yl]pyridine-3-carboxamide], the “CYP3A4 Induction-PXR human PXR internal Max % Activity” value in data set [1] stood at 13%. In addition, in data set [2], the 50% effective concentration (EC50) came to 80 nM. As for `Cc1nn(C)cc1S(=O)(=O)NC(=O)c1ccc(-n2ccc(OCC3(C(F)(F)F)CC3)n2)nc1N1CC(C(C)C)CC1(C)C` (racemic) [Compound 41, N-(1,3-dimethylpyrazol-4-yl)sulfonyl-2-(4-isopropyl-2,2-dimethyl-pyrrolidin-1-yl)-6-[3-[[1-(trifluoromethyl)cyclopropyl]methoxy]pyrazol-1-yl]pyridine-3-carboxamide], in data set [1], the “CYP3A4 Induction-PXR human PXR internal Max % Activity” value was 4%. The EC50 in data set [2] was 120 nM. For `Cc1nn(C)cc1S(=O)(=O)NC(=O)c1ccc(-n2ccc(OCC3(C(F)(F)F)CC3)n2)nc1N1C[C@@H](C(C)C)CC1(C)C` (single isomer, unassigned) [Compound 46, N-(1,3-dimethylpyrazol-4-yl)sulfonyl-2-(4-isopropyl-2,2-dimethyl-pyrrolidin-1-yl)-6-[3-[[1-(trifluoromethyl)cyclopropyl]methoxy]pyrazol-1-yl]pyridine-3-carboxamide], in data set [2], the EC50 was 390 nM. Consider `Cc1nn(C)cc1S(=O)(=O)NC(=O)c1ccc(-n2ccc(OCC3(C(F)(F)F)CC3)n2)nc1N1C[C@@H](C(C)C)CC1(C)C` (single isomer, unassigned) [Compound 47, N-(1,3-dimethylpyrazol-4-yl)sulfonyl-2-(4-isopropyl-2,2-dimethyl-pyrrolidin-1-yl)-6-[3-[[1-(trifluoromethyl)cyclopropyl]methoxy]pyrazol-1-yl]pyridine-3-carboxamide], for which the EC50 in data set [2] came to 60 nM. On to `Cc1nn(C)cc1S(=O)(=O)NC(=O)c1ccc(-n2ccc(OCC3(C(F)(F)F)CC3)n2)nc1N1CC(C(C)(C)C)CC1(C)C` (single isomer, unassigned) [Compound 53, 2-(4-tert-butyl-2,2-dimethyl-pyrrolidin-1-yl)-N-(1,3-dimethylpyrazol-4-yl)sulfonyl-6-[3-[[1-(trifluoromethyl)cyclopropyl]methoxy]pyrazol-1-yl]pyridine-3-carboxamide], for which, in data set [1], the “CYP3A4 Induction-PXR human PXR internal Max % Activity” value amounted to 7%. In data set [2], the concentration giving a half-maximal response (EC50) turned out to be 390 nM. As to `C[C@@H]1CN(c2nc(-n3ccc(OC4CC4)n3)ccc2C(=O)NS(=O)(=O)c2cnn(C)c2)C(C)(C)C1` [Compound 22, 6-[3-(Cyclopropoxy)pyrazol-1-yl]-N-(1-methylpyrazol-4-yl)sulfonyl-2-[(4S)-2,2,4-trimethylpyrrolidin-1-yl]pyridine-3-carboxamide], in data set [2], the EC50 came out at 2100 nM. For the compound `Cc1c(S(=O)(=O)NC(=O)c2ccc(-n3ccc(OCC4(C)CC4(F)F)n3)nc2N2C[C@@H](C)CC2(C)C)cnn1C` (stereo partly drawn) [Compound 24, 6-[3-[(2,2-Difluoro-1-methyl-cyclopropyl)methoxy]pyrazol-1-yl]-N-(1,5-dimethylpyrazol-4-yl)sulfonyl-2-[(4S)-2,2,4-trimethylpyrrolidin-1-yl]pyridine-3-carboxamide], in data set [1], the “CYP3A4 Induction-PXR human PXR internal Max % Activity” value is listed as 6%. The concentration giving a half-maximal response (EC50) in data set [2] was found to be 710 nM. As for `[2H]C([2H])([2H])[C@@H]1CN(c2nc(-n3ccc(OCC(C)(C)C(F)(F)F)n3)ccc2C(=O)NS(=O)(=O)c2cn(C)nc2C)C(C)(C)C1([2H])[2H]` [Compound 29, (S)—N-((1,3-dimethyl-1H-pyrazol-4-yl)sulfonyl)-2-(2,2-dimethyl-4-(methyl-d3)pyrrolidin-1-yl-3,3-d2)-6-(3-(3,3,3-trifluoro-2,2-dimethylpropoxy)-1H-pyrazol-1-yl)nicotinamide], in data set [2], the half-maximal effective concentration (EC50) came out at 110 nM. For the compound `Cc1c(S(=O)(=O)NC(=O)c2ccc(-n3ccc(OCC(C4CC4)C4CC4)n3)nc2N2C[C@@H](C)CC2(C)C)cnn1C` [Compound 33, 6-[3-(2,2-dicyclopropylethoxy)pyrazol-1-yl]-N-(1,5-dimethylpyrazol-4-yl)sulfonyl-2-[(4S)-2,2,4-trimethylpyrrolidin-1-yl]pyridine-3-carboxamide], the “CYP3A4 Induction-PXR human PXR internal Max % Activity” value in data set [1] came to 5%. Also, in data set [2], the half-maximal effective concentration (EC50) was determined as 370 nM.

`Cc1nn(C)cc1S(=O)(=O)NC(=O)c1ccc(-n2ccc(OCC3(C(F)(F)F)CC3)n2)nc1N1CC(C)CC1(C)C` (centres unmarked) [Compound 42, N-(1,3-dimethylpyrazol-4-yl)sulfonyl-6-[3-[[1-(trifluoromethyl)cyclopropyl]methoxy]pyrazol-1-yl]-2-(2,2,4-trimethylpyrrolidin-1-yl)pyridine-3-carboxamide]: the “CYP3A4 Induction-PXR human PXR internal Max % Activity” value in data set [1] is 16%. For the same compound, the EC50 in data set [2] turned out to be 610 nM. As for `Cc1nn(C)cc1S(=O)(=O)NC(=O)c1ccc(-n2ccc(OCC3(C(F)(F)F)CC3)n2)nc1N1CC(C)CC12CCC2` (centres unmarked) [Compound 43, N-(1,3-dimethylpyrazol-4-yl)sulfonyl-2-(7-methyl-5-azaspiro[3.4]octan-5-yl)-6-[3-[[1-(trifluoromethyl)cyclopropyl]methoxy]pyrazol-1-yl]pyridine-3-carboxamide], the “CYP3A4 Induction-PXR human PXR internal Max % Activity” value in data set [1] was determined as 4%. In data set [2], the EC50 is 220 nM. Regarding `Cc1nn(C)cc1S(=O)(=O)NC(=O)c1ccc(-n2ccc(OCC3(C(F)(F)F)CC3)n2)nc1N1CC(C)CC12CC2` (centres unmarked) [Compound 44, N-(1,3-dimethylpyrazol-4-yl)sulfonyl-2-(6-methyl-4-azaspiro[2.4]heptan-4-yl)-6-[3-[[1-(trifluoromethyl)cyclopropyl]methoxy]pyrazol-1-yl]pyridine-3-carboxamide], the concentration for a half-maximal effect (EC50) in data set [2] is 390 nM.

For the compound `CCC1CN(c2nc(-n3ccc(OCC4(C(F)(F)F)CC4)n3)ccc2C(=O)NS(=O)(=O)c2cn(C)nc2C)C(C)(C)C1` (centres unmarked) [Compound 49, N-(1,3-dimethylpyrazol-4-yl)sulfonyl-2-(4-ethyl-2,2-dimethyl-pyrrolidin-1-yl)-6-[3-[[1-(trifluoromethyl)cyclopropyl]methoxy]pyrazol-1-yl]pyridine-3-carboxamide], in data set [2], the concentration giving a half-maximal response (EC50) came to 190 nM.

For `C[C@@H]1CN(c2nc(-n3ccc(OCCC4(C(F)(F)F)CC4)n3)ccc2C(=O)NS(=O)(=O)c2cn(C)nc2C(F)(F)F)C(C)(C)C1` [Compound 55, N-[1-methyl-3-(trifluoromethyl)pyrazol-4-yl]sulfonyl-6-[3-[2-[1-(trifluoromethyl)cyclopropyl]ethoxy]pyrazol-1-yl]-2-[(4S)-2,2,4-trimethylpyrrolidin-1-yl]pyridine-3-carboxamide], the “CYP3A4 Induction-PXR human PXR internal Max % Activity” value in data set [1] amounted to 9%. Besides, the EC50 in data set [2] was 100 nM. For `Cc1nn(C)cc1S(=O)(=O)NC(=O)c1ccc(-n2ccc(OCCC3C4(CC4)C34CC4)n2)nc1N1C[C@@H](C)CC1(C)C` [Compound 56, N-(1,3-Dimethylpyrazol-4-yl)sulfonyl-6-[3-(2-dispiro[2.0.2.1]heptan-7-ylethoxy)pyrazol-1-yl]-2-[(4S)-2,2,4-trimethylpyrrolidin-1-yl]pyridine-3-carboxamide], the “CYP3A4 Induction-PXR human PXR internal Max % Activity” value in data set [1] is given as 11%.
